Consider 1 compound from US11969428B2, “Methods and pharmaceutical compositions for treating lymphoid malignancy” (priority 2011, dated 2024).

A short description of data set [1]: Plasma glucose and insulin levels. Format: in vivo, mouse. Conditions: single oral dose 10 mg kg−1. The protocol:
Plasma glucose and insulin levels were determined following a single oral dose of CAL-130 (10 mg kg^−1). Blood was collected into K2EDTA tubes by cardiac puncture at baseline and 0, 2, 4, and 8 hours post-dose, and plasma samples frozen at −80° C. until analysis. The insulin and glucose levels were determined by using an Ultra Sensitive Mouse Insulin ELISA Kit (Crystall Chem Inc.) or WaveSense Presto Blood Glucose Monitoring System (Agamatrix Inc., Boston, MA), respectively.

Data set [2] deals with primary human T-ALL tumor cells. As to the kind of experiment: Primary T-ALL cell viability on MS5-DL1 stroma. In kind it is cell-based. The note with it: primary T-ALL devoid of PTEN; 72 hours. The protocol: Cell proliferation of CCRF-CEM cells or shRNA transfected CCRF-CEM cells, in the presence or absence of appropriate drug, was followed by cell counting of samples in triplicate using a hemocytometer and trypan blue. For apoptosis determinations of untransfected or shRNA transfected CCRF-CEMs, cells were stained with APC-conjugated Annexin-V (BD Biosciences) in Annexin Binding Buffer (Miltyeni Biotec) and analyzed by flow cytometry. For primary T-ALL samples, cell viability was assessed using the BD Cell Viability kit (BD Biosciences) coupled with the use of fluorescent counting beads as previously described (Armstrong et al., 2009). For this, cells were plated with MS5-DL1 stroma cells, and after 72 hours following drug treatment cells were harvested and stained with an APC-conjugated anti-human CD45 followed by a staining with the above kit according to the manufacturer's instructions.

The subject of another data set is thymocytes. As to the kind of experiment: Effect on thymi of 6 week old mice treated 7 days. Format: in vivo, mouse. The note with it: 10 mg kg−1 every 8 hours for 7 days. The protocol: Cell counts were measured on a Hemavet 850FS system (CDC Technologies, Oxford, CT), and standard procedures were followed for staining cells with the following antibody conjugates for flow cytometry (BD Biosciences, San Jose, CA) (Cella et al., 2004): phycoerythrin (PE) anti-CD4 (clone H129.19), fluorescein (FITC), PE, cytochrome c (CyC), or biotin anti-CD8a, FITC CD3c, CyC anti-B220, and Thy 1.2. Biotinylated antibodies were detected with either streptavidin-PE or streptavidin-CyC. Subsets of DN thymocytes were analyzed based on expression of CD25 and CD44 after gating out cells that stained with a cocktail of biotinylated antibodies to CD4, CD8, B220, Mac-1, and Gr-1 followed by streptavidin Cy-Chrome.
To assess the in vivo efficacy of the inhibitor, its effects on thymi of 6 week old mice were determined, specifically for its ability to recapitulate the phenotype observed when both p110γ and p110δ are deficient. Animals received 10 mg kg^−1 of the inhibitor orally, which was sufficient to maintain plasma concentrations of 0.33±0.18 μM at the end of 8 hours (FIG. 16D). […] In particular, there was a 18-fold reduction in total thymocyte number in comparison to controls, which was primarily due to the loss of DP population (FIG. 16H). These observations are consistent with the ability of CAL-130 to preferentially block the function of both PI3Kγ and PI3Kδ.

A further data set has as its target p110γ (Homo sapiens, UniProt P48736). As to the kind of experiment: ex-vivo PI3 kinase assay using recombinant PI3K. Format: biochemical. The note with it: ATP at Km. The method, then:
(§1) CAL-130 is a derivative of IC87114 (Gilead Sciences, Foster City, CA), the synthesis of which has been previously described (Sadhu et al., 2003 and Sadhu et al., U.S. Pat. Nos. 6,518,277 and 6,667,300, which are incorporated by reference as if recited in full herein). […] values for CAL-130 inhibition of PI3K isoforms were determined in ex-vivo PI3 kinase assays using recombinant PI3K. A 10-point kinase inhibitory profile was determined with ATP at a concentration consistent with the Km for each enzyme (Puri et al., 2004).

Another data set concerns the target p110β (Homo sapiens, UniProt P42338). As to the kind of experiment: ex-vivo PI3 kinase assay using recombinant PI3K. In kind it is biochemical. The note with it: ATP at Km. The method, then: as §1
In the next data set the target is p110δ (Homo sapiens, UniProt O00329). As to the kind of experiment: ex-vivo PI3 kinase assay using recombinant PI3K. Format: biochemical. The note with it: ATP at Km. The method, then:
as §1

The subject of another data set is CCRF-CEM xenograft. As to the kind of experiment: Systemic (intravenous) CCRF-CEM xenograft, survival. In kind it is in vivo, mouse. The note with it: treatment from 3 days post-injection for 7 days. The protocol: After 3 days, mice were segregated into two treatment groups that received either CAL-130 or vehicle by oral gavage as described above for 7 days. Mice in both groups were then followed until moribund (and euthanized).
In the former, luciferase expressing CCRF-CEM cells were injected into the flanks of immunodeficient mice and allowed to grow for 1 week before administering vehicle control or inhibitor (10 mg kg^−1 every 8 hours) for a total of 4 days. In the latter, treatment commenced 3 days post-injection of tumor cells for a total of 7 days. […] This translated into an increase in median survival time for treated animals with systemic disease of 35 days versus 23 days for mice that received vehicle control alone (FIG. 19D).

A further data set has as its system CCRF-CEM cells. As to the kind of experiment: Immunoblots of signaling downstream of PI3K. In kind it is cell-based, human. The protocol:
Cell lysates (from cell lines or thymocytes) were prepared on ice in M-PER Mammalian Protein Extraction reagent (Pierce) containing a cocktail of protease and phosphatase inhibitors (Swat et al., 2006). Equal amounts of total protein from lysates were subjected to SDS-PAGE, transferred to PVDF membrane (Immobilon-P, Millipore), and membranes probed by overnight incubation with appropriate primary antibodies. Bound antibodies were visualized with HRP-conjugated secondary antibodies and ECL chemistry (SuperPico West, Pierce).
The PI3K/Akt signaling pathway can play a major role in cell cycle progression and growth of tumors by regulating the activation state of the downstream targets such as glycogen synthase kinase-3β (GSK3β) and mTOR (Schmelzle and Hall, 2000; Cohen and Frame, 2001). PI3K/Akt mediated phosphorylation suppresses the function of the former and promotes the activity of the latter. Tumor cell survival, on the other hand, is largely mediated by the ability of this pathway to inactivate proapoptotic effectors such as the BH3-only pro-apoptotic protein BAD and to repress the expression of BIM, both of which participate in the mitochondria-dependent cell death pathway (Strasser et al., 2000; Duronio, 2008). Therefore, the ability of CAL-130 treatment to interfere with such events was examined. […] Downstream targets of this protein kinase were also affected as evidenced by the reduction in phosphorylation of GSK3β and mTOR. […] The latter would also explain in part the synergy between CAL-130 and dexamethasone, as BIM expression is required for glucocorticoid-induced apoptosis (Erlacher et al., 2005; Wang et al., 2003).

Sequence of p110γ (P48736 whole entry, species assumed, canonical isoform): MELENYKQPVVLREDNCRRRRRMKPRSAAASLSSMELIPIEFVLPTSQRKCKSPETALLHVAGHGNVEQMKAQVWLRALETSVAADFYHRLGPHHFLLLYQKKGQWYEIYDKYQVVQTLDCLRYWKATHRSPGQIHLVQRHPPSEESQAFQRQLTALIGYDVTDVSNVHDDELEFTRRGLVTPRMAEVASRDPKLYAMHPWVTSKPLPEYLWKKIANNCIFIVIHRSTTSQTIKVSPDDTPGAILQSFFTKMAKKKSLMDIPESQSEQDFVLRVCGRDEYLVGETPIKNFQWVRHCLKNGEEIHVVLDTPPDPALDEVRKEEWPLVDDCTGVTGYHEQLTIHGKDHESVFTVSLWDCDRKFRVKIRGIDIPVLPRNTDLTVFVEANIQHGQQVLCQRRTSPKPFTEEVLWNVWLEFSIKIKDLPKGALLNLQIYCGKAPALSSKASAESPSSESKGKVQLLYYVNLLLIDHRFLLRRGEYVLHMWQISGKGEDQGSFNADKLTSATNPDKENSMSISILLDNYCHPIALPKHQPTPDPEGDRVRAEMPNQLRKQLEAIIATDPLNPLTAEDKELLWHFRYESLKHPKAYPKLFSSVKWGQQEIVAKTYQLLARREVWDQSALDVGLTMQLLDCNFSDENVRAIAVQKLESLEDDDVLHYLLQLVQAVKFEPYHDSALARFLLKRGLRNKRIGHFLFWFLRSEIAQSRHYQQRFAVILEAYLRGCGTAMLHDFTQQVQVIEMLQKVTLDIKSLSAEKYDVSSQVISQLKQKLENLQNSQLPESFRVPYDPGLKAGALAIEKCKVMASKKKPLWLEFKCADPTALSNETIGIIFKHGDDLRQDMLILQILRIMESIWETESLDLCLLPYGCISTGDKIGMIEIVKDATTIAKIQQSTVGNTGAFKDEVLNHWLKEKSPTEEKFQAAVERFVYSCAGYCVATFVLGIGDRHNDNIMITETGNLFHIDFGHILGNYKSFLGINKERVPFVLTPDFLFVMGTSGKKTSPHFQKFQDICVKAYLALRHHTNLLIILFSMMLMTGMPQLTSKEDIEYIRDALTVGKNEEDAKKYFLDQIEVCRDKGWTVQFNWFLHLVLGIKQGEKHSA
Sequence of p110δ (O00329 whole entry, species assumed): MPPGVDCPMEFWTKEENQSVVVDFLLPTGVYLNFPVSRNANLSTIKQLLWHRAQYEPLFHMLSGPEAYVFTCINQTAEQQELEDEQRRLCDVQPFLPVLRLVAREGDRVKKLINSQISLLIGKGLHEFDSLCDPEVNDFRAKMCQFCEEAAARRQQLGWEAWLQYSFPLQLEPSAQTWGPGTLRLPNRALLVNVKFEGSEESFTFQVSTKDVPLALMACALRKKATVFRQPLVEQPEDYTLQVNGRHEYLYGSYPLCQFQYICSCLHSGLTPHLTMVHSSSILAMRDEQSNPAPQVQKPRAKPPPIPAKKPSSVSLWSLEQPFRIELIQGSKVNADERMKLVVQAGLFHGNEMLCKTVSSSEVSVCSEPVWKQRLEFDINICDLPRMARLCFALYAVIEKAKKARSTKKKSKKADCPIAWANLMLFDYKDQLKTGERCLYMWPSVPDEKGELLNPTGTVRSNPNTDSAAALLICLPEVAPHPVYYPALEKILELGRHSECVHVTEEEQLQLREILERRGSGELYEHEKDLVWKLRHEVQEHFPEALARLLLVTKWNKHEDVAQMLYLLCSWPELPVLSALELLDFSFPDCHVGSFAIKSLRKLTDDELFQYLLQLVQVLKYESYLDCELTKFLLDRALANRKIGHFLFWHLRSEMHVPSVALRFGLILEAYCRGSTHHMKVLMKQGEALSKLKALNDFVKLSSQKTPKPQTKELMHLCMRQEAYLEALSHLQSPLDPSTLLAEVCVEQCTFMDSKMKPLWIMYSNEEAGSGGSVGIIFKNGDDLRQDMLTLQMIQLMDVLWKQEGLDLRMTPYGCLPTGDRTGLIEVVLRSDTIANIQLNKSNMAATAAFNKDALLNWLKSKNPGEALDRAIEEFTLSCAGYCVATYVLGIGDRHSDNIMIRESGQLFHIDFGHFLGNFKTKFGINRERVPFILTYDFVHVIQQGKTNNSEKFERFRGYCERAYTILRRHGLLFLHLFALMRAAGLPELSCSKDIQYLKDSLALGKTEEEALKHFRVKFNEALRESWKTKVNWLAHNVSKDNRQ
Sequence of p110δ (P27986 whole entry partner, species assumed): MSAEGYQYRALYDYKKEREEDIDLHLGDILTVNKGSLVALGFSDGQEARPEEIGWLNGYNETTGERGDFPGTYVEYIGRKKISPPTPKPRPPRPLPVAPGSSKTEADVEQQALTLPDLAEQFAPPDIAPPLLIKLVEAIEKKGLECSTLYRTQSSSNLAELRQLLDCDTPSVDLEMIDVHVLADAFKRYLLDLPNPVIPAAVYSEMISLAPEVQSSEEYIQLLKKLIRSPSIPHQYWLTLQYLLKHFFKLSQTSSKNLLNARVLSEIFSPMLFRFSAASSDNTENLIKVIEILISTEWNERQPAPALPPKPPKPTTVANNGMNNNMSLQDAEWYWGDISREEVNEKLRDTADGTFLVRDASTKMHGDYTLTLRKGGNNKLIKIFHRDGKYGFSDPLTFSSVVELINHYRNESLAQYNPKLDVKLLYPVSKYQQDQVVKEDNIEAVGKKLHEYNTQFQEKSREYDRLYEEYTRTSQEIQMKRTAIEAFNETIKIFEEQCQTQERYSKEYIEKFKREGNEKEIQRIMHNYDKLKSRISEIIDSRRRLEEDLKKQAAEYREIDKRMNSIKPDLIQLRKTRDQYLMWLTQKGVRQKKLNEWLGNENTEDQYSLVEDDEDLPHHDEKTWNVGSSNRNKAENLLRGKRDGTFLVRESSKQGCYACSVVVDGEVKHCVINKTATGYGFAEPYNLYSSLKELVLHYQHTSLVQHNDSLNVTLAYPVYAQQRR
Sequence of p110β (P42338 whole entry, species assumed): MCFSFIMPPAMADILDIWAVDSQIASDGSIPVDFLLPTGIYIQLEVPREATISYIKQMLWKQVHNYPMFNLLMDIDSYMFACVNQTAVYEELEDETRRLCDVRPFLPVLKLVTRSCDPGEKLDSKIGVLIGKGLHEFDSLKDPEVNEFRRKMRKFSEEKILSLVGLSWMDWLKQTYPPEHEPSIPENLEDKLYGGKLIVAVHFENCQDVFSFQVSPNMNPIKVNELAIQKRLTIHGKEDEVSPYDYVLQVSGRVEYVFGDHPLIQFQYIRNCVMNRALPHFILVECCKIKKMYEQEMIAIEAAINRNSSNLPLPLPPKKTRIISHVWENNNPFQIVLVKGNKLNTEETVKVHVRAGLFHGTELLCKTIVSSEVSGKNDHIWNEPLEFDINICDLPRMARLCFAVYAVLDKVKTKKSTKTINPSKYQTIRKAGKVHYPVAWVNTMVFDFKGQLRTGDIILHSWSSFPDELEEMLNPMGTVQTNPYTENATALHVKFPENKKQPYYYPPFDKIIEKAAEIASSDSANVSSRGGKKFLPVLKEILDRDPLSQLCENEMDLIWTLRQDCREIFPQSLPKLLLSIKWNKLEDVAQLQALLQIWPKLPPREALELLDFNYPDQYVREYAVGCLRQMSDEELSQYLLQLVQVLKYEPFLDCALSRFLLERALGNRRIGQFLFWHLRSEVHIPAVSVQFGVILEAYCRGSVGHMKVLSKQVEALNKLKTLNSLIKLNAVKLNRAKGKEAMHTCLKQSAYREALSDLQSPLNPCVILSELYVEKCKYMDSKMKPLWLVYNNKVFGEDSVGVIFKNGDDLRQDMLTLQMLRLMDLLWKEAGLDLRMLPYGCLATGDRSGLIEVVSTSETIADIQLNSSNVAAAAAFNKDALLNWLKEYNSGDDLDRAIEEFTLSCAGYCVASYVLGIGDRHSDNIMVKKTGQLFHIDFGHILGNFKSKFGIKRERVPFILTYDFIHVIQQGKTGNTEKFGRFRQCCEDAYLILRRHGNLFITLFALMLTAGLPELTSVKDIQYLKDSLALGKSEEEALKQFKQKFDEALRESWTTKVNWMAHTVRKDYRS
Sequence of p110β (P27986 whole entry partner, species assumed): as the sequence (P27986 whole entry partner, species assumed) above
Protocol for PTEN null T-ALL: Mice deficient for PTEN in the T cell lineage were generated by crossing Lck-cre with floxed Pten (Hennet et al., 1995; Trotman et al., 2003).
Mice received an oral dose (10 mg kg^−1) of the inhibitor every 8 hours for a period of 7 days and were then followed until moribund.
Pten^fl/fl mice were crossed with a strain in which a luciferase cDNA, preceded by a LoxP-stop-LoxP cassette, was introduced into the ubiquitously expressed ROSA26 locus (Safran et al., 2003). Progeny were then crossed with Lck-cre transgenics to delete Pten in T cell progenitors and induce expression of luciferase (Lck/Pten^fl/fl; Gt(ROSA)26Sor^tm1(Luc)Kael/J).

Take `Cc1ccccc1-n1c(C(C)Nc2nc(N)nc3nc[nH]c23)nc2cccc(C)c2c1=O` (stereo not shown) [CAL-130]: the “weights of thymi, liver, spleen, and kidneys versus vehicle control” value in the data set on PTEN null T-ALL (7 days treatment) is “significantly less”. In addition, in the data set on PTEN null T-ALL (Lck/Pten fl/fl mice with T-ALL, oral 10 mg kg−1 every 8 hours for 7 days), the median survival was 45 days. Also, the WBC entry in the data set with PTEN null T-ALL (Lck/Pten fl/fl mice, by day 4) is recorded as “dramatic reduction”. The “apoptosis (sub-G0 population after PI staining)” value in the data set with PTEN null T-ALL (Lck/Pten fl/fl mice, days 4 through 7) is given as “increase in apoptosis”. Also, the bioluminescent signals result in the data set on PTEN null T-ALL (Lck/Pten fl/fl;Gt(ROSA)26Sor luciferase mice, day 4 of treatment) is given as “dramatically lower”. In the data set with PTEN null T-ALL (diseased Lck/Pten fl/fl mice, within hours of treatment (data not shown)), the “peripheral blood T-ALL cells” value is “dramatic and sustained reduction”. Also, in [1], the plasma glucose levels result is given as “did not affect” and the plasma insulin levels result is on record as “did not affect”. The tumor cell viability entry in [2] is recorded as “reduction in tumor cell viability”. In the data set on thymocytes, the “reduction in total thymocyte number in comparison to controls” value is listed as 18 fold. In addition, at p110γ, the IC50 – broadly, the concentration that gives 50% inhibition – came to 6.1 nM. Besides, the IC50 at p110β stood at 56 nM. In addition, the IC50 at p110δ amounted to 1.3 nM. This compound registered a median survival time with CCRF-CEM xenograft of 35 days. Further, in the data set on CCRF-CEM cells, the “expression of BIM (including L and S isoforms)” value is “enhanced expression”; the “phosphorylation of BAD” value was “reduction”; the “phosphorylation of GSK3β” value is given as “reduction”; the “phosphorylation of mTOR” value was “reduction”. For the same compound, in the data set on CCRF-CEM cells (2.5 μM, 6 hours), the “Akt (Ser473) phosphorylation” value was “complete abrogation”.
